Data reported in the kinase profiling compilation of Christmann-Franck et al. (2016).

Legend:
Test in all cases: KINOMEscan competition binding
Conditions in all cases: compound 10.0 µM
[1] = target: PIK3CG (human) (UniProt P48736)
[2] = target: ULK1 (human) (UniProt O75385)
[3] = target: CAMK2D (human) (UniProt Q13557)
[4] = target: PTK2B (human) (UniProt Q14289)
[5] = target: PTK6 (human) (UniProt Q13882)
[6] = target: FER (human) (UniProt P16591)
[7] = target: MYLK (human) (UniProt Q15746)
[8] = target: ULK2 (human) (UniProt Q8IYT8)
[9] = target: RPS6KA2 KD2 (human) (UniProt Q15349)
[10] = target: DCLK1 (human) (UniProt O15075)
[11] = target: NUAK1 (human) (UniProt O60285)
[12] = target: ALK (human) (UniProt Q9UM73)
[13] = target: PLK1 (human) (UniProt P53350)
[14] = tested on: ABL1 (human), P00519 [F317L]
[15] = target: TNK1 (human) (UniProt Q13470)
[16] = target: PLK4 (human) (UniProt O00444)
[17] = target: MAPK7 (human) (UniProt Q13164)
[18] = target: RPS6KA6 KD2 (human) (UniProt Q9UK32)
[19] = target: CAMKK2 (human) (UniProt Q96RR4)
[20] = target: TAOK1 (human) (UniProt Q7L7X3)
[21] = target: DCLK2 (human) (UniProt Q8N568)
[22] = target: ROS1 (human) (UniProt P08922)
[23] = target: STK33 (human) (UniProt Q9BYT3)
[24] = target: CSF1R (human) (UniProt P07333)
[25] = target: FGFR4 (human) (UniProt P22455)
[26] = target: MKNK2 (human) (UniProt Q9HBH9)
[27] = target: TNK2 (human) (UniProt Q07912)
[28] = tested on: ABL1 (human), P00519 [F317I]
[29] = target: AURKA (human) (UniProt O14965)
[30] = target: FRK (human) (UniProt P42685)
[31] = target: PTK2 (human) (UniProt Q05397)
[32] = target: TAOK3 (human) (UniProt Q9H2K8)
[33] = target: RPS6KA1 KD2 (human) (UniProt Q15418)
[34] = target: TTK (human) (UniProt P33981)
[35] = target: AURKC (human) (UniProt Q9UQB9)
[36] = target: GAK (human) (UniProt O14976)
[37] = target: PRKD1 (human) (UniProt Q15139)

FGFR4 (human), sequence (P22455 whole entry, looked up): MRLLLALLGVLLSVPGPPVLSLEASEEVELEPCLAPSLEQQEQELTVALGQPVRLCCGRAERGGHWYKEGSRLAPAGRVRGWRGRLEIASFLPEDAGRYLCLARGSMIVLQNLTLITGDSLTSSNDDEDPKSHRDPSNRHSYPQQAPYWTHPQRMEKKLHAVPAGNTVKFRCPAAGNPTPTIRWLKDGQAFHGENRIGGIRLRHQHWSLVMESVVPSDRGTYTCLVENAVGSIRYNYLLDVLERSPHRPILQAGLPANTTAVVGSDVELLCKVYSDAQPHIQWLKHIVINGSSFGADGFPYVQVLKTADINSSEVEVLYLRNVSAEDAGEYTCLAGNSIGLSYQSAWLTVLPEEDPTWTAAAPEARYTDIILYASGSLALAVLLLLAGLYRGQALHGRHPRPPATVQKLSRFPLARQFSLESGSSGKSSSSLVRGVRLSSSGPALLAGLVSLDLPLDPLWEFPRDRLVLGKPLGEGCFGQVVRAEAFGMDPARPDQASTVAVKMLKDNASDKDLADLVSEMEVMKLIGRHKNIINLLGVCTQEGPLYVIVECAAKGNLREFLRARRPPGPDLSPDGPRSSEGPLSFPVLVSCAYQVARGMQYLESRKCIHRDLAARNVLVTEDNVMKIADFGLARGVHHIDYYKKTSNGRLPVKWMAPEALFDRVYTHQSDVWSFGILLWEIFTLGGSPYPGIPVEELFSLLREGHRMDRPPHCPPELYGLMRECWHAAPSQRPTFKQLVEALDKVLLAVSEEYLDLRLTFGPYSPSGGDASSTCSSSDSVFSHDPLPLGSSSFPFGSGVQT
PIK3CG (human), sequence (P48736 whole entry, looked up): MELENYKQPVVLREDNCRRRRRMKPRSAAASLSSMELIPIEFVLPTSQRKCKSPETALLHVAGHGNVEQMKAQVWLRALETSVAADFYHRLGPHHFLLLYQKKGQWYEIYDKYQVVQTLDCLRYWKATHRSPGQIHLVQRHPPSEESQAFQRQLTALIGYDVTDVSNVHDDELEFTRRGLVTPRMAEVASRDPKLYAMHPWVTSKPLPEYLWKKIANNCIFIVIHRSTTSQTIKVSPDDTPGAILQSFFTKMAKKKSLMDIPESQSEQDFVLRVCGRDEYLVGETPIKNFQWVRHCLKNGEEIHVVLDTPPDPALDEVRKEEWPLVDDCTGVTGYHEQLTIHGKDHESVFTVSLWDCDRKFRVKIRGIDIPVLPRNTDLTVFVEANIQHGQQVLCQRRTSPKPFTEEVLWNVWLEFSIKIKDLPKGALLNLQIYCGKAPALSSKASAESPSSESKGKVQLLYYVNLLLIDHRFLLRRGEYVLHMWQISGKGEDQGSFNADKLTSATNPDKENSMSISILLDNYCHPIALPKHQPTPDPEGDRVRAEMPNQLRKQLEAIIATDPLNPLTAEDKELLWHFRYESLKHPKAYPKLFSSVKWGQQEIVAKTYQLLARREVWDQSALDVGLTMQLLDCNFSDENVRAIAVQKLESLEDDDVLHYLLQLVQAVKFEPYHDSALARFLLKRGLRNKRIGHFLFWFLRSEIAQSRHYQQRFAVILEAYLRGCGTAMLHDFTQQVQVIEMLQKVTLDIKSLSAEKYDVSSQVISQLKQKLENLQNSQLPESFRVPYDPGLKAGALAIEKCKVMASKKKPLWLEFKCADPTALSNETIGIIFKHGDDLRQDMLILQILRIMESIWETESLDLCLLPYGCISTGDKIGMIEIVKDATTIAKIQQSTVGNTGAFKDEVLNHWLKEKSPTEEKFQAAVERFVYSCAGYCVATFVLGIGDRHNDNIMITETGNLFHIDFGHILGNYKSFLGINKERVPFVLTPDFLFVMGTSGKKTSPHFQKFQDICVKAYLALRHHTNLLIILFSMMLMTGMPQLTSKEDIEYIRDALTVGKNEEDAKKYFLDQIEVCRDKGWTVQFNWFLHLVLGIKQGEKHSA
NUAK1 (human), sequence (O60285 whole entry, looked up): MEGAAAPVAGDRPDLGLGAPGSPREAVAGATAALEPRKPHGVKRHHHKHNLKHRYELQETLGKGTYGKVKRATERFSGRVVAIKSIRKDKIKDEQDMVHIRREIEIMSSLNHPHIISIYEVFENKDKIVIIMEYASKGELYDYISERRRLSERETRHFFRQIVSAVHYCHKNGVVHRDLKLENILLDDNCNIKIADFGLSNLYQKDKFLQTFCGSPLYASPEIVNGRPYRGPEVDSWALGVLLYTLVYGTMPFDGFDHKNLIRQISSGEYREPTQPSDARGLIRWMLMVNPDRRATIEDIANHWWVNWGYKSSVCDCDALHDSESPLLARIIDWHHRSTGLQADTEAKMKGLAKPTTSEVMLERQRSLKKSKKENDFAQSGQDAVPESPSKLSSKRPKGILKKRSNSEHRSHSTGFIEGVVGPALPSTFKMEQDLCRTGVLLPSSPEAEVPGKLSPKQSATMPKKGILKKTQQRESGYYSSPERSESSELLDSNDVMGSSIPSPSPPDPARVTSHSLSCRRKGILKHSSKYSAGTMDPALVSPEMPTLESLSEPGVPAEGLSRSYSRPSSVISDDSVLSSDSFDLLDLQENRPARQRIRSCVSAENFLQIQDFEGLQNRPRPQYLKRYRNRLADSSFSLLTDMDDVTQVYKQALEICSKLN
PLK1 (human), sequence (P53350 whole entry, looked up): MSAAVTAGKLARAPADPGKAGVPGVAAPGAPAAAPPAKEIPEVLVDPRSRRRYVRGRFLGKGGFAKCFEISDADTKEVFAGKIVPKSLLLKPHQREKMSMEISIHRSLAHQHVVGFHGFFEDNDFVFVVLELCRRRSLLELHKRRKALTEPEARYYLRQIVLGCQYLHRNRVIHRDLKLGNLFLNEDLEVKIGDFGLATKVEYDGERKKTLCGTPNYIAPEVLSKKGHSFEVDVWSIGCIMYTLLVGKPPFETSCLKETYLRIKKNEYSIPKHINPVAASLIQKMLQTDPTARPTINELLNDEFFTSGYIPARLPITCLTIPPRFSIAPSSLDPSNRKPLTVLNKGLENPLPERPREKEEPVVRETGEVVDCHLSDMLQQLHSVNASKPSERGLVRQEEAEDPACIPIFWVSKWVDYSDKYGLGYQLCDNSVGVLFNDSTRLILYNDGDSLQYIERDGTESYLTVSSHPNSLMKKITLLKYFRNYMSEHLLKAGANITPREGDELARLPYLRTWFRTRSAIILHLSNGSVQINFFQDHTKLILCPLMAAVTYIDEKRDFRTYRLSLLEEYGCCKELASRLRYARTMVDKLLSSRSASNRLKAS
CAMKK2 (human), sequence (Q96RR4 whole entry, looked up): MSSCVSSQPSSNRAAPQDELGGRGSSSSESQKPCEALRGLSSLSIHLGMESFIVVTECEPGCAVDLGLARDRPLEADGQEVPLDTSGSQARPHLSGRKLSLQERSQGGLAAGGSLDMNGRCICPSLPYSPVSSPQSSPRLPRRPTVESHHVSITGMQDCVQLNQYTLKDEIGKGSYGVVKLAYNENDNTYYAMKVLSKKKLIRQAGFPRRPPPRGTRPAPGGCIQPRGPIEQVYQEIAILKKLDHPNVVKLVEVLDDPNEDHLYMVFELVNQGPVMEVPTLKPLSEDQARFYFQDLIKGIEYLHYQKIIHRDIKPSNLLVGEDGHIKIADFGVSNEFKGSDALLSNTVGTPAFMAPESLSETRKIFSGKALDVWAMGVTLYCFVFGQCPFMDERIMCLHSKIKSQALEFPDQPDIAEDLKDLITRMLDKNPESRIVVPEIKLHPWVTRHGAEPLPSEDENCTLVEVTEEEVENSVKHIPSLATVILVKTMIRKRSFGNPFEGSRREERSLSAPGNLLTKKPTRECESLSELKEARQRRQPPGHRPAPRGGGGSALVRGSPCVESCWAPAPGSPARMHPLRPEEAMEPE
GAK (human), sequence (O14976 whole entry, looked up): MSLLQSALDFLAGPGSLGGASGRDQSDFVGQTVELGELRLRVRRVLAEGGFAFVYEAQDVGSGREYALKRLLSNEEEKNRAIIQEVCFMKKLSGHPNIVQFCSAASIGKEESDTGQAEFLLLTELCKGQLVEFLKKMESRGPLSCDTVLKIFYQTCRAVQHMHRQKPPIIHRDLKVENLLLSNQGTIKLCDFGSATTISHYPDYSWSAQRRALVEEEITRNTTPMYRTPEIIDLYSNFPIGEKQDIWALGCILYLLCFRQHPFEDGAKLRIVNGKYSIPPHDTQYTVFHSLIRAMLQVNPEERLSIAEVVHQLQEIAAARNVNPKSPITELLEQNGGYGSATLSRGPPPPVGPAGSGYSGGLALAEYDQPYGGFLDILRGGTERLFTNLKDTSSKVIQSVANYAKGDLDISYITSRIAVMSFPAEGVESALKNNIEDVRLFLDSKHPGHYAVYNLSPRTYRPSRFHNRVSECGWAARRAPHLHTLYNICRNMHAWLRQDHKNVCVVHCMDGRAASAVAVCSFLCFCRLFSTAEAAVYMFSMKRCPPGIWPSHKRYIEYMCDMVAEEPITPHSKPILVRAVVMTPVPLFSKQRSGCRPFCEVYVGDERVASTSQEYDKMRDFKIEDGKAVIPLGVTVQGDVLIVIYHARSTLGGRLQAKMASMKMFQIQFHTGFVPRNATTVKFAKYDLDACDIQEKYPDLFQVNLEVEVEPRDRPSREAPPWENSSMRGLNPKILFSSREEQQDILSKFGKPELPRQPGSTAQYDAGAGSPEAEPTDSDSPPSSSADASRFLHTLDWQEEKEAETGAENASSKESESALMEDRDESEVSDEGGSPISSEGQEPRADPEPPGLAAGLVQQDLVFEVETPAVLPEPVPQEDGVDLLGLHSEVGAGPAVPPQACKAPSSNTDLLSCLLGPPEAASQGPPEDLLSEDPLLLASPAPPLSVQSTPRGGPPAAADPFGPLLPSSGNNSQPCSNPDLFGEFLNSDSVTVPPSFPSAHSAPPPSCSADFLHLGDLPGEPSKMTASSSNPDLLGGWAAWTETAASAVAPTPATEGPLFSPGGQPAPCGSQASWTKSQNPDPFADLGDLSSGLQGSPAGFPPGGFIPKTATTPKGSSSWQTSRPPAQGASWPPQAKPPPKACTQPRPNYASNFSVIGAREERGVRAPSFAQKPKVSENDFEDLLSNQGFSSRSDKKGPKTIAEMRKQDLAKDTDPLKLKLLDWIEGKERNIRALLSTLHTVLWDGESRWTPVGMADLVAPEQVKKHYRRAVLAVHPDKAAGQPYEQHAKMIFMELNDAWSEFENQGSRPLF

kinase still bound, per cent of control [1]: 9.3%
kinase still bound, per cent of control [2]: 22%
kinase still bound, per cent of control [3]: 27%
kinase still bound, per cent of control [4]: 29%
kinase still bound, per cent of control [5]: 21%
kinase still bound, per cent of control [6]: 32%
kinase still bound, per cent of control [7]: 22%
kinase still bound, per cent of control [8]: 8.4%
kinase still bound, per cent of control [9]: 27%
kinase still bound, per cent of control [10]: 0.55%
kinase still bound, per cent of control [11]: 24%
kinase still bound, per cent of control [12]: 24%
kinase still bound, per cent of control [13]: 5.5%
kinase still bound, per cent of control [14]: 23%
kinase still bound, per cent of control [15]: 0.45%
kinase still bound, per cent of control [16]: 5.9%
kinase still bound, per cent of control [17]: 0%
kinase still bound, per cent of control [18]: 14%
kinase still bound, per cent of control [19]: 15%
kinase still bound, per cent of control [20]: 6.8%
kinase still bound, per cent of control [21]: 0.4%
kinase still bound, per cent of control [22]: 5.8%
kinase still bound, per cent of control [23]: 19%
kinase still bound, per cent of control [24]: 3.2%
kinase still bound, per cent of control [25]: 6%
kinase still bound, per cent of control [26]: 0%
kinase still bound, per cent of control [27]: 1.6%
kinase still bound, per cent of control [28]: 7.4%
kinase still bound, per cent of control [29]: 26%
kinase still bound, per cent of control [30]: 11%
kinase still bound, per cent of control [31]: 7.9%
kinase still bound, per cent of control [32]: 5.4%
kinase still bound, per cent of control [33]: 22%
kinase still bound, per cent of control [34]: 13%
kinase still bound, per cent of control [35]: 15%
kinase still bound, per cent of control [36]: 8.5%
kinase still bound, per cent of control [37]: 26%
Structure (SMILES): COc1cc(N2CCC(O)CC2)ccc1Nc1ncc2c(n1)N(C)c1ccccc1C(=O)N2C
